US20060235076A1, “Medicinal composition for treating infection with drug-resistant staphylococcus aureus” (priority 2003, published 2006)
Converted amounts (≈) assume the structure as drawn. Read-outs that look alike come from different tables or passages of the source.

Legend:
[1] = test system: MRSA COL and MRSA Strain No. 5; experiment: Potentiating effect of various gallates for antibacterial activity of oxacillin (MIC by broth microdilution method and FIC); assay type: cell-based, Staphylococcus aureus; details: for FIC value: combination with oxacillin
Method: According to the broth microdilution method defined by Japan Society of Chemotherapy, MIC was determined. CAMHA was prepared by adding 50 mg/l of Ca-ion, 25 mg/l of Mg-ion, and 2% of NaCl to MHB (Mueller-Hinton Broth), and it was used as a medium for use in the measurement of sensitivity. In 96-well microplates 100 μl of the medium for use in the measurement of sensitivity containing drugs was dispensed. The bacterial liquid was incubated at 37° C. overnight, diluted with saline and added to the plate so that the final concentration of the bacteria was 5×10^5 CFU/well. […] FIC (fractional inhibitory concentration) was calculated from the result and the potency of the effect of the combination use was evaluated.

MRSA and MSSA = experiment: Antibacterial activity of gallic acid, various gallates and multivalent phenol derivatives alone (agar plate dilution method, MIC); assay type: cell-based, Staphylococcus aureus; details: Staphylococcus aureus; for MIC: read-out: MIC alone
Method: According to the agar plate dilution method defined by Japan Society of Chemotherapy, MIC (Minimum inhibitory concentration) was determined. CAMHA was prepared by adding 50 mg/l of Ca-ion, 25 mg/l of Mg-ion, and 2% of NaCl to Mueller-Hinton II Agar (MHA), and it was used as a medium for use in the measurement of sensitivity. The bacterial liquid was incubated at 37° C. overnight and diluted to 10^6 CFU/ml with saline.
MIC for gallic acid, various gallates and multivalent phenol derivatives alone with MRSA and MSSA were determined as described in experiment 2.

CCOC(=O)c1cc(O)c(O)c(O)c1 [Ethyl gallate, ethyl gallate]
FIC value ([1]; MRSA COL): 0.125 | FIC value ([1]; MRSA Strain No. 5): 0.156 | MIC50 (MRSA and MSSA): 125 µg/mL (≈ 631 µM) | MIC (MRSA and MSSA; ATCC 6538 / MRSA / MSSA): 125 µg/mL (≈ 631 µM) | MIC (MRSA and MSSA; COL): 125 µg/mL (≈ 631 µM) | MIC (MRSA and MSSA; MRSA #1): 125 µg/mL (≈ 631 µM) | MIC (MRSA and MSSA; MRSA #2): 62.5 µg/mL (≈ 315 µM) | MIC (MRSA and MSSA; MRSA #3): 125 µg/mL (≈ 631 µM) | MIC (MRSA and MSSA; MRSA #4): 62.5 µg/mL (≈ 315 µM) | MIC (MRSA and MSSA; MRSA #5): 125 µg/mL (≈ 631 µM) | MIC (MRSA and MSSA; MRSA #6): 62.5 µg/mL (≈ 315 µM) | MIC (MRSA and MSSA; MRSA #7): 125 µg/mL (≈ 631 µM) | MIC (MRSA and MSSA; MRSA #8): 125 µg/mL (≈ 631 µM) | MIC (MRSA and MSSA; MRSA #9): 62.5 µg/mL (≈ 315 µM) | MIC (MRSA and MSSA; MRSA #10): 62.5 µg/mL (≈ 315 µM) | MIC (MRSA and MSSA; MRSA #12): 125 µg/mL (≈ 631 µM) | MIC (MRSA and MSSA; MRSA #16): 125 µg/mL (≈ 631 µM) | MIC (MRSA and MSSA; MRSA #17): 62.5 µg/mL (≈ 315 µM) | MIC (MRSA and MSSA; MRSA #18): 62.5 µg/mL (≈ 315 µM) | MIC (MRSA and MSSA; MRSA #20): 125 µg/mL (≈ 631 µM) | MIC (MRSA and MSSA; MRSA #21): 125 µg/mL (≈ 631 µM) | MIC (MRSA and MSSA; MRSA #22): 125 µg/mL (≈ 631 µM) | MIC (MRSA and MSSA; MRSA #24): 125 µg/mL (≈ 631 µM) | MIC (MRSA and MSSA; MSSA #1003): 125 µg/mL (≈ 631 µM) | MIC (MRSA and MSSA; MSSA #1010): 125 µg/mL (≈ 631 µM) | MIC (MRSA and MSSA; MSSA #1020): 125 µg/mL (≈ 631 µM) | MIC (MRSA and MSSA; MSSA #1023): 62.5 µg/mL (≈ 315 µM) | MIC (MRSA and MSSA; MSSA #1029): 62.5 µg/mL (≈ 315 µM) | MIC (MRSA and MSSA; MSSA #1032): 125 µg/mL (≈ 631 µM)

CCCCCCCCCOC(=O)c1cc(O)c(O)c(O)c1 [Nonyl gallate, n-nonyl gallate]
antibacterial activity when used alone ([1]; COL Strain and Strain No. 5): most potent | FIC value ([1]; MRSA COL): 0.625 | FIC value ([1]; MRSA Strain No. 5): 0.502 | MIC50 (MRSA and MSSA): 15.7 µg/mL (≈ 53 µM) | MIC (MRSA and MSSA; ATCC 6538 / MRSA / MSSA): 15.7 µg/mL (≈ 53 µM) | MIC (MRSA and MSSA; COL): 15.7 µg/mL (≈ 53 µM) | MIC (MRSA and MSSA; MRSA #1): 15.7 µg/mL (≈ 53 µM) | MIC (MRSA and MSSA; MRSA #2): 15.7 µg/mL (≈ 53 µM) | MIC (MRSA and MSSA; MRSA #3): 15.7 µg/mL (≈ 53 µM) | MIC (MRSA and MSSA; MRSA #4): 15.7 µg/mL (≈ 53 µM) | MIC (MRSA and MSSA; MRSA #5): 15.7 µg/mL (≈ 53 µM) | MIC (MRSA and MSSA; MRSA #6): 15.7 µg/mL (≈ 53 µM) | MIC (MRSA and MSSA; MRSA #7): 15.7 µg/mL (≈ 53 µM) | MIC (MRSA and MSSA; MRSA #8): 15.7 µg/mL (≈ 53 µM) | MIC (MRSA and MSSA; MRSA #9): 15.7 µg/mL (≈ 53 µM) | MIC (MRSA and MSSA; MRSA #10): 15.7 µg/mL (≈ 53 µM) | MIC (MRSA and MSSA; MRSA #12): 15.7 µg/mL (≈ 53 µM) | MIC (MRSA and MSSA; MRSA #16): 15.7 µg/mL (≈ 53 µM) | MIC (MRSA and MSSA; MRSA #17): 15.7 µg/mL (≈ 53 µM) | MIC (MRSA and MSSA; MRSA #18): 15.7 µg/mL (≈ 53 µM) | MIC (MRSA and MSSA; MRSA #20): 15.7 µg/mL (≈ 53 µM) | MIC (MRSA and MSSA; MRSA #21): 15.7 µg/mL (≈ 53 µM) | MIC (MRSA and MSSA; MRSA #22): 15.7 µg/mL (≈ 53 µM) | MIC (MRSA and MSSA; MRSA #24): 15.7 µg/mL (≈ 53 µM) | MIC (MRSA and MSSA; MRSA and MSSR): 15.7 µg/mL (≈ 53 µM) | MIC (MRSA and MSSA; MSSA #1003): 15.7 µg/mL (≈ 53 µM) | MIC (MRSA and MSSA; MSSA #1010): 15.7 µg/mL (≈ 53 µM) | MIC (MRSA and MSSA; MSSA #1020): 15.7 µg/mL (≈ 53 µM) | MIC (MRSA and MSSA; MSSA #1023): 15.7 µg/mL (≈ 53 µM) | MIC (MRSA and MSSA; MSSA #1029): 15.7 µg/mL (≈ 53 µM) | MIC (MRSA and MSSA; MSSA #1032): 15.7 µg/mL (≈ 53 µM)

CCCCOC(=O)c1cc(O)c(O)c(O)c1 [Butyl gallate, n-butyl gallate]
effect of the combination use with oxacillin by FIC values ([1]; COL Strain and Strain No. 5): most potent effect of the combination use | FIC value ([1]; MRSA COL): 0.129 | FIC value ([1]; MRSA Strain No. 5): 0.254 | MIC (MRSA and MSSA; ATCC 6538 / MRSA / MSSA, ATCC6538): 125 µg/mL (≈ 553 µM) | MIC (MRSA and MSSA; COL): 125 µg/mL (≈ 553 µM) | MIC (MRSA and MSSA; MRSA #1): 125 µg/mL (≈ 553 µM) | MIC (MRSA and MSSA; MRSA #2): 125 µg/mL (≈ 553 µM) | MIC (MRSA and MSSA; MRSA #3): 125 µg/mL (≈ 553 µM) | MIC (MRSA and MSSA; MRSA #4): 125 µg/mL (≈ 553 µM) | MIC (MRSA and MSSA; MRSA #5): 125 µg/mL (≈ 553 µM) | MIC (MRSA and MSSA; MRSA #6): 62.5 µg/mL (≈ 276 µM) | MIC (MRSA and MSSA; MRSA #7): 125 µg/mL (≈ 553 µM) | MIC (MRSA and MSSA; MRSA #8): 125 µg/mL (≈ 553 µM) | MIC (MRSA and MSSA; MRSA #9): 62.5 µg/mL (≈ 276 µM) | MIC (MRSA and MSSA; MRSA #10): 62.5 µg/mL (≈ 276 µM) | MIC (MRSA and MSSA; MRSA #12): 125 µg/mL (≈ 553 µM) | MIC (MRSA and MSSA; MRSA #16): 125 µg/mL (≈ 553 µM) | MIC (MRSA and MSSA; MRSA #17): 125 µg/mL (≈ 553 µM) | MIC (MRSA and MSSA; MRSA #18): 125 µg/mL (≈ 553 µM) | MIC (MRSA and MSSA; MRSA #20): 125 µg/mL (≈ 553 µM) | MIC (MRSA and MSSA; MRSA #21): 125 µg/mL (≈ 553 µM) | MIC (MRSA and MSSA; MRSA #22): 125 µg/mL (≈ 553 µM) | MIC (MRSA and MSSA; MRSA #24): 125 µg/mL (≈ 553 µM) | MIC (MRSA and MSSA; MSSA #1003): 125 µg/mL (≈ 553 µM) | MIC (MRSA and MSSA; MSSA #1010): 125 µg/mL (≈ 553 µM) | MIC (MRSA and MSSA; MSSA #1020): 125 µg/mL (≈ 553 µM) | MIC (MRSA and MSSA; MSSA #1023): 125 µg/mL (≈ 553 µM) | MIC (MRSA and MSSA; MSSA #1029): 62.5 µg/mL (≈ 276 µM) | MIC (MRSA and MSSA; MSSA #1032): 125 µg/mL (≈ 553 µM) | MIC50 (MRSA and MSSA; compound alone, over all strains of Table 3-1, read-out: MIC50): 125 µg/mL (≈ 553 µM)

CCCCCCCCCCOC(=O)c1cc(O)c(O)c(O)c1 [Decyl gallate, n-decyl gallate]
antibacterial activity when used alone ([1]; COL Strain and Strain No. 5): most potent | FIC value ([1]; MRSA COL): 0.258 | FIC value ([1]; MRSA Strain No. 5): 0.508 | MIC50 (MRSA and MSSA): 15.7 µg/mL (≈ 50.6 µM) | MIC (MRSA and MSSA; ATCC 6538 / MRSA / MSSA): 15.7 µg/mL (≈ 50.6 µM) | MIC (MRSA and MSSA; COL): 15.7 µg/mL (≈ 50.6 µM) | MIC (MRSA and MSSA; MRSA #1): 15.7 µg/mL (≈ 50.6 µM) | MIC (MRSA and MSSA; MRSA #2): 15.7 µg/mL (≈ 50.6 µM) | MIC (MRSA and MSSA; MRSA #3): 15.7 µg/mL (≈ 50.6 µM) | MIC (MRSA and MSSA; MRSA #4): 15.7 µg/mL (≈ 50.6 µM) | MIC (MRSA and MSSA; MRSA #5): 15.7 µg/mL (≈ 50.6 µM) | MIC (MRSA and MSSA; MRSA #6): 15.7 µg/mL (≈ 50.6 µM) | MIC (MRSA and MSSA; MRSA #7): 15.7 µg/mL (≈ 50.6 µM) | MIC (MRSA and MSSA; MRSA #8): 15.7 µg/mL (≈ 50.6 µM) | MIC (MRSA and MSSA; MRSA #9): 15.7 µg/mL (≈ 50.6 µM) | MIC (MRSA and MSSA; MRSA #10): 15.7 µg/mL (≈ 50.6 µM) | MIC (MRSA and MSSA; MRSA #12): 15.7 µg/mL (≈ 50.6 µM) | MIC (MRSA and MSSA; MRSA #16): 15.7 µg/mL (≈ 50.6 µM) | MIC (MRSA and MSSA; MRSA #17): 15.7 µg/mL (≈ 50.6 µM) | MIC (MRSA and MSSA; MRSA #18): 15.7 µg/mL (≈ 50.6 µM) | MIC (MRSA and MSSA; MRSA #20): 15.7 µg/mL (≈ 50.6 µM) | MIC (MRSA and MSSA; MRSA #21): 31.3 µg/mL (≈ 101 µM) | MIC (MRSA and MSSA; MRSA #22): 31.3 µg/mL (≈ 101 µM) | MIC (MRSA and MSSA; MRSA #24): 31.3 µg/mL (≈ 101 µM) | MIC (MRSA and MSSA; MRSA and MSSR): 15.7 µg/mL (≈ 50.6 µM) | MIC (MRSA and MSSA; MSSA #1003): 15.7 µg/mL (≈ 50.6 µM) | MIC (MRSA and MSSA; MSSA #1010): 15.7 µg/mL (≈ 50.6 µM) | MIC (MRSA and MSSA; MSSA #1020): 15.7 µg/mL (≈ 50.6 µM) | MIC (MRSA and MSSA; MSSA #1023): 15.7 µg/mL (≈ 50.6 µM) | MIC (MRSA and MSSA; MSSA #1029): 15.7 µg/mL (≈ 50.6 µM) | MIC (MRSA and MSSA; MSSA #1032): 15.7 µg/mL (≈ 50.6 µM)
